The source of these data is the supplement of paper PMC10307832.

SMILES strings stand for the structures.

One test concerns NCI-H1651. Description: relative viability (nuclei count vs DMSO), 5 days (fraction); higher = more cells survive. The settings on record: first compound 8 µM. The procedure, abridged:
(§1)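 Relative viability equals treated-well nuclei counts divided by vehicle-well nuclei counts. Counts came from 4× images of lung cancer cell lines grown in 1536-well plates for 5 days after pin-tool dosing on the day after seeding. Dosing used one drug alone or a fixed anchor-drug dose plus five library-drug doses (not always all listed) in √10 steps, and values are medians of duplicate plates.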
On to `CCCCCCCCCCCC1=C(O)C(=O)C=C(O)C1=O` [Embelin] + CS(=O)(=O)N1CCN(Cc2cc3nc(-c4cccc5[nH]ncc45)nc(N4CCOCC4)c3s2)CC1 [Pictilisib] (partner 1 µM), for which the relative viability worked out at 0.607.

For `CCCCCCCCCCCC1=C(O)C(=O)C=C(O)C1=O` [Embelin] + C[C@@H](Oc1cc(-c2cnn(C3CCNCC3)c2)cnc1N)c1c(Cl)ccc(F)c1Cl [Crizotinib] (partner 1 µM), the relative viability came out at 0.837.

A further test has as its system NCI-H322M. The test is described as above. The settings on record: first compound 0.08 µM. The procedure, abridged:
as §1
`CCCCCCCCCCCC1=C(O)C(=O)C=C(O)C1=O` [Embelin] + O=C(CCCCCCC(=O)Nc1ccccc1)NO [Vorinostat] (partner 1 µM): the relative viability was 0.873.

Take `CCCCCCCCCCCC1=C(O)C(=O)C=C(O)C1=O` [Embelin] + Cc1cc(Nc2cc(N3CCN(C)CC3)nc(Sc3ccc(NC(=O)C4CC4)cc3)n2)n[nH]1 [Tozasertib] (partner 0.1 µM): the relative viability turned out to be 0.526.

`CCCCCCCCCCCC1=C(O)C(=O)C=C(O)C1=O` [Embelin] + COc1cc2c(Oc3ccc(NC(=O)C4(C(=O)Nc5ccc(F)cc5)CC4)cc3F)ccnc2cc1OCCCN1CCOCC1 [Foretinib] (partner 0.25 µM): the relative viability was determined as 0.938.

With `CCCCCCCCCCCC1=C(O)C(=O)C=C(O)C1=O` [Embelin] + CS(=O)(=O)N1CCN(Cc2cc3nc(-c4cccc5[nH]ncc45)nc(N4CCOCC4)c3s2)CC1 [Pictilisib] (partner 1 µM), the relative viability amounted to 0.518.

In the case of `CCCCCCCCCCCC1=C(O)C(=O)C=C(O)C1=O` [Embelin] + C[C@@H](Oc1cc(-c2cnn(C3CCNCC3)c2)cnc1N)c1c(Cl)ccc(F)c1Cl [Crizotinib] (partner 1 µM), the relative viability came out at 0.901.

The same test, now with this note: first compound 0.8 µM.
Compound `CCCCCCCCCCCC1=C(O)C(=O)C=C(O)C1=O` [Embelin] + O=C(CCCCCCC(=O)Nc1ccccc1)NO [Vorinostat] (partner 1 µM) showed a relative viability of 0.954.

The compound `CCCCCCCCCCCC1=C(O)C(=O)C=C(O)C1=O` [Embelin] + Cc1cc(Nc2cc(N3CCN(C)CC3)nc(Sc3ccc(NC(=O)C4CC4)cc3)n2)n[nH]1 [Tozasertib] (partner 0.1 µM) came in with a relative viability of 0.52.

As to `CCCCCCCCCCCC1=C(O)C(=O)C=C(O)C1=O` [Embelin] + COc1cc2c(Oc3ccc(NC(=O)C4(C(=O)Nc5ccc(F)cc5)CC4)cc3F)ccnc2cc1OCCCN1CCOCC1 [Foretinib] (partner 0.25 µM), the relative viability was found to be 1.22.

The compound `CCCCCCCCCCCC1=C(O)C(=O)C=C(O)C1=O` [Embelin] + CS(=O)(=O)N1CCN(Cc2cc3nc(-c4cccc5[nH]ncc45)nc(N4CCOCC4)c3s2)CC1 [Pictilisib] (partner 1 µM) registered a relative viability of 0.612.

`CCCCCCCCCCCC1=C(O)C(=O)C=C(O)C1=O` [Embelin] + C[C@@H](Oc1cc(-c2cnn(C3CCNCC3)c2)cnc1N)c1c(Cl)ccc(F)c1Cl [Crizotinib] (partner 1 µM) gave a relative viability of 1.22.

The same test, now with this note: first compound 2.53 µM.
Compound `CCCCCCCCCCCC1=C(O)C(=O)C=C(O)C1=O` [Embelin] + O=C(CCCCCCC(=O)Nc1ccccc1)NO [Vorinostat] (partner 1 µM) returned a relative viability of 1.01.

`CCCCCCCCCCCC1=C(O)C(=O)C=C(O)C1=O` [Embelin] + Cc1cc(Nc2cc(N3CCN(C)CC3)nc(Sc3ccc(NC(=O)C4CC4)cc3)n2)n[nH]1 [Tozasertib] (partner 0.1 µM): the relative viability was determined as 0.521.

As for `CCCCCCCCCCCC1=C(O)C(=O)C=C(O)C1=O` [Embelin] + COc1cc2c(Oc3ccc(NC(=O)C4(C(=O)Nc5ccc(F)cc5)CC4)cc3F)ccnc2cc1OCCCN1CCOCC1 [Foretinib] (partner 0.25 µM), the relative viability was determined as 1.03.

As for `CCCCCCCCCCCC1=C(O)C(=O)C=C(O)C1=O` [Embelin] + CS(=O)(=O)N1CCN(Cc2cc3nc(-c4cccc5[nH]ncc45)nc(N4CCOCC4)c3s2)CC1 [Pictilisib] (partner 1 µM), the relative viability worked out at 0.576.

Compound `CCCCCCCCCCCC1=C(O)C(=O)C=C(O)C1=O` [Embelin] + C[C@@H](Oc1cc(-c2cnn(C3CCNCC3)c2)cnc1N)c1c(Cl)ccc(F)c1Cl [Crizotinib] (partner 1 µM) returned a relative viability of 1.07.

Staying with this test, now noted: first compound 8 µM.
Compound `CCCCCCCCCCCC1=C(O)C(=O)C=C(O)C1=O` [Embelin] + O=C(CCCCCCC(=O)Nc1ccccc1)NO [Vorinostat] (partner 1 µM) registered a relative viability of 0.801.

`CCCCCCCCCCCC1=C(O)C(=O)C=C(O)C1=O` [Embelin] + Cc1cc(Nc2cc(N3CCN(C)CC3)nc(Sc3ccc(NC(=O)C4CC4)cc3)n2)n[nH]1 [Tozasertib] (partner 0.1 µM) displayed a relative viability of 0.503.

In the case of `CCCCCCCCCCCC1=C(O)C(=O)C=C(O)C1=O` [Embelin] + COc1cc2c(Oc3ccc(NC(=O)C4(C(=O)Nc5ccc(F)cc5)CC4)cc3F)ccnc2cc1OCCCN1CCOCC1 [Foretinib] (partner 0.25 µM), the relative viability was found to be 0.961.

Compound `CCCCCCCCCCCC1=C(O)C(=O)C=C(O)C1=O` [Embelin] + CS(=O)(=O)N1CCN(Cc2cc3nc(-c4cccc5[nH]ncc45)nc(N4CCOCC4)c3s2)CC1 [Pictilisib] (partner 1 µM) returned a relative viability of 0.478.

For `CCCCCCCCCCCC1=C(O)C(=O)C=C(O)C1=O` [Embelin] + C[C@@H](Oc1cc(-c2cnn(C3CCNCC3)c2)cnc1N)c1c(Cl)ccc(F)c1Cl [Crizotinib] (partner 1 µM), the relative viability was 1.16.

For the next test, the system named is COR-L 105. The test is described as above. The settings on record: first compound 0.08 µM. The essentials:
as §1
The compound `CCCCCCCCCCCC1=C(O)C(=O)C=C(O)C1=O` [Embelin] + O=C(CCCCCCC(=O)Nc1ccccc1)NO [Vorinostat] (partner 1 µM) registered a relative viability of 0.867.

In turn, `CCCCCCCCCCCC1=C(O)C(=O)C=C(O)C1=O` [Embelin] + Cc1cc(Nc2cc(N3CCN(C)CC3)nc(Sc3ccc(NC(=O)C4CC4)cc3)n2)n[nH]1 [Tozasertib] (partner 0.1 µM) displayed a relative viability of 0.363.

For the compound `CCCCCCCCCCCC1=C(O)C(=O)C=C(O)C1=O` [Embelin] + COc1cc2c(Oc3ccc(NC(=O)C4(C(=O)Nc5ccc(F)cc5)CC4)cc3F)ccnc2cc1OCCCN1CCOCC1 [Foretinib] (partner 0.25 µM), the relative viability stood at 1.04.

`CCCCCCCCCCCC1=C(O)C(=O)C=C(O)C1=O` [Embelin] + CS(=O)(=O)N1CCN(Cc2cc3nc(-c4cccc5[nH]ncc45)nc(N4CCOCC4)c3s2)CC1 [Pictilisib] (partner 1 µM) had a relative viability of 0.338.

Regarding `CCCCCCCCCCCC1=C(O)C(=O)C=C(O)C1=O` [Embelin] + C[C@@H](Oc1cc(-c2cnn(C3CCNCC3)c2)cnc1N)c1c(Cl)ccc(F)c1Cl [Crizotinib] (partner 1 µM), the relative viability came out at 0.727.

Staying with this test, now noted: first compound 0.8 µM.
`CCCCCCCCCCCC1=C(O)C(=O)C=C(O)C1=O` [Embelin] + O=C(CCCCCCC(=O)Nc1ccccc1)NO [Vorinostat] (partner 1 µM) returned a relative viability of 0.906.

The compound `CCCCCCCCCCCC1=C(O)C(=O)C=C(O)C1=O` [Embelin] + Cc1cc(Nc2cc(N3CCN(C)CC3)nc(Sc3ccc(NC(=O)C4CC4)cc3)n2)n[nH]1 [Tozasertib] (partner 0.1 µM) returned a relative viability of 0.386.

In the case of `CCCCCCCCCCCC1=C(O)C(=O)C=C(O)C1=O` [Embelin] + COc1cc2c(Oc3ccc(NC(=O)C4(C(=O)Nc5ccc(F)cc5)CC4)cc3F)ccnc2cc1OCCCN1CCOCC1 [Foretinib] (partner 0.25 µM), the relative viability amounted to 1.05.
